According to publication PMC8881512 (Nature Communications, 2022):

Molecular target: T1, MSK1/RPS6KA5 (Homo sapiens, UniProt O75582)
T1 construct: LATS1/LATS2 enzymes from Signalchem
Experiment: Kinome profiling
Assay type: biochemical
Settings: VT02956 (5 nM), read-out: % enzymatic activity relative to DMSO controls

T1 sequence (O75582 whole entry): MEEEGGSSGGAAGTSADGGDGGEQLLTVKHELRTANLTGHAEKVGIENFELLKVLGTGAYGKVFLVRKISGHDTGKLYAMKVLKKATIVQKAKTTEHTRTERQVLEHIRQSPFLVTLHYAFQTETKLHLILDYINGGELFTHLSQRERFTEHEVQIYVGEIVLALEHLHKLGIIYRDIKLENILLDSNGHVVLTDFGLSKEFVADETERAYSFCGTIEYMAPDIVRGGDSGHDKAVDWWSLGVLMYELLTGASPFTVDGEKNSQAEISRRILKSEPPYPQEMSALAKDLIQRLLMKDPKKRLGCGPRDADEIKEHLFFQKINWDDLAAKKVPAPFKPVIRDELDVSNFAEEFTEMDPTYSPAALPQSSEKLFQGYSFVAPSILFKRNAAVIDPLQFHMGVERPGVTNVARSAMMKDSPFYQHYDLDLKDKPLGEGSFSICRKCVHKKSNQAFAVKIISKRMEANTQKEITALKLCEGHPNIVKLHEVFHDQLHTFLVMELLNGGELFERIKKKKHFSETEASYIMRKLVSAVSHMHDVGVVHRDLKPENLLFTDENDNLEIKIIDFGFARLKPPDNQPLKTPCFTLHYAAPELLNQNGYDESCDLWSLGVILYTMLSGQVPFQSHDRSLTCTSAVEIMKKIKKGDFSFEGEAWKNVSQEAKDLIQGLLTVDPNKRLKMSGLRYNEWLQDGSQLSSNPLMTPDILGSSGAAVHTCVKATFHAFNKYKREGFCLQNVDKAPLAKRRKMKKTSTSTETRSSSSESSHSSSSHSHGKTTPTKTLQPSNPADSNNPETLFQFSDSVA

remaining activity at 0.005 µM: 49%
SMILES: NCC1CCN(c2nc(-c3ccncc3)nc3c(C#CCO)cccc23)CC1 [VT02956]
